Values quoted from earlier work as cited in patent publication US20220151922A1, “Medication for Alleviating Parkinson's Symptoms and Method of Administering” (priority 2020, published 2022).

Assays:
[1] = test system: bacteria, bacterial spores, and viruses; conditions: versus chlorine bleach
[2] = test system: Pseudomonas aeruginosa biofilms

OCl [HOCl, Hypochlorous acid]
effectiveness of killing bacteria, bacterial spores, and viruses relative to chlorine bleach [1]: 100 times
removing Pseudomonas aeruginosa biofilms [2]: effectiveness
